Three substances from patent US7348155B2, “Method for identifying compounds for treating aging processes in the coronary circulatory system” (Sanofi-Aventis Deutschland GmbH, priority 2001, dated 2008) can be followed below.

What all share (assay type): cell-based
Experiment [1] deals with human cardiac fibroblasts from healthy donor hearts. The experiment is described as follows: Procollagen type I C-peptide ELISA (collagen synthesis) in fibroblasts from control (healthy donor) hearts. The note with it: 10^−7 mol/l; for Collagen synthesis (procollagen type I C-peptide, Absorption, in % of the controls), MV: mean value over control (donor) hearts. As to the method: (§1) Human cardiac fibroblasts were isolated from seven explanted human hearts in the terminal stage of cardiac insufficiency due to dilated cardiomyopathy. Four cell preparations were also made from healthy donor hearts. The fibroblasts were isolated in sterile 10 cm Petri dishes and cultured as previously described. After about 12 weeks of culturing, the cells reached the second passage with a confluence of approx. 80%. At this stage, the serum was withdrawn for 48 hours and the cells were subsequently stimulated for various intervals of time (between 6 and 24 hours) with UII, Ang II, TNFalpha, TGFβ, UII+TNFa, (in each case 10^−7 mol/l), or buffer (control). The determinations were carried out in duplicate or in triplicate. After the stimulation, the cells were washed, removed from the Petri dishes with 1 ml of PBS and centrifuged down in Eppendorf tubes (100 rpm, 5 min, 4° C.). The supernatant was discarded. 100 ul of lysis buffer (Nonidet P40, 0.5%, SDS 0.5%) were added to about 50 ul of cells and the mixture was incubated on ice for a further 20 minutes. The lysate was centrifuged once again (20 minutes, 1400 rpm, 4° C.) and the supernatant was used for the subsequent experiments. Protein was determined by means of the BCA (bicinchoninic acid) assay. The homogenates were diluted down to a protein concentration of 2 ug/ul.
(§2) Procollagen type I C-peptide in the fibroblasts from all the hearts was determined on a 96-well microtiter plate using a commercially obtainable solid-phase ELISA assay (TaKaRa Biomedicals, Shuzo Co, Ltd.). The assay was carried out in accordance with the manufacturer's instructions. […] The values for the procollagen type I C-peptide were determined using a standard curve of 10-640 ng/ml. The standards were provided by the manufacturer. The absorption values for the stimulations obtained with the controls (buffer) were set at 100%. The absorption values for the stimulated cells were related to the control values obtained for the same heart. In each case, the mean values from duplicate or triplicate determinations were used for the calculations. A bilateral, unpaired t test was used for statistically evaluating the comparison of the stimulation responses in control cells and in cardiac insufficiency cells.

In experiment [2] the test system is human cardiac fibroblasts from explanted hearts in the terminal stage of cardiac insufficiency. Kind of experiment: Procollagen type I C-peptide ELISA (collagen synthesis) in fibroblasts from hearts in the terminal stage of cardiac insufficiency (EFH). Particulars: 10^−7 mol/l; for Collagen synthesis (procollagen type I C-peptide, Absorption, in % of the controls), MV: mean value over EFH hearts (SEM as spread). On the procedure: as §1, with “At this stage, the serum was withdrawn for 48 hours and the cells were subsequently stimulated for various intervals of time (between 6 and 24 hours) with UII, Ang II, TNFalpha, TGFβ, UII+TNFa, (in each case 10^−7 mol/l), or buffer (control).” left out
as §2

In experiment [3] the test system is fibroblasts from human hearts. Kind of experiment: Induction of mRNAs (collagen 1, MMP2, TGFbeta1, CTGF) in heart fibroblasts, real-time PCR. The note with it: 1 μM, 6 hours stimulation, fibroblasts from three human hearts, GAPDH mRNA as standard reference. On the procedure: Fibroblasts were isolated from human hearts as described in Cell and Tissue Research 286, 145-153 (1996). 96-98% of the resulting cell culture consisted of fibroblasts.
For the purpose of implementing this procedure, heart tissue was cut into small pieces and incubated three times, at 37° C. for 20 minutes, in KHB (Krebs Henseleit buffer) containing 2 mg of collagenase/ml and 2 mg of dispase/ml. The homogenates were combined and then centrifuged. The sediments were taken up in 10 ml of KHB. The cells were added, in portions of in each case 2 to 3 ml, to uncoated plastic containers. The volume was made up to 10 ml with DMEM (Dulbecco's modification of Eagle's medium) containing […] and 10% FCS (fetal calf serum). After having been incubated at 37° C. for 1 hour, the cells were washed twice with PBS (phosphate-buffered saline) and subsequently cultured, at 37° C. and 5% CO2, for approx. 4-8 weeks until 90% confluence had been reached. There then followed two further passages of in each case 4 weeks' duration. The cells employed in the present experiments were used after the second passage and at 70% to 90% confluence (approx. 3 months after isolation).
The reagents for implementing the cell culture techniques were obtained from Gibco BRL Life Technologies. The cells were first of all kept, at 37° C., in serum-free DMEM containing 4000 mg of glucose/l, 2 mM L-glutamine, 100 μg/0.1 mg of penicillin/streptomycin/ml and 0.1% BSA (bovine serum albumin) before angiotensin II or urotensin II was added, […] RNA was then prepared from the cells after 6 hours.
The RNA was isolated by means of standard methods using guanidinium chloride.
Reverse transcriptase (10 units/ng of RNA) was used to transcribe 500 ng of the RNA from each sample into DNA. For degrading the DNA, the entire volume, containing approx. 8-10 μg of RNA, was incubated with DNase I.
The RNAs were quantified using a LightCycler and a Fast Start SYBR Green RT-PCR kit supplied by Roche Molecular Biochemicals. Corresponding kits from other companies such as Applied Biosystems, Bio-Rad or Stratagene are also suitable for the same purpose. […] The quantities were equalized using GAPDH mRNA as the control.
Fibroblasts were isolated from three human hearts and used in the […]. […] The mRNAs (collagen 1, matrix metalloproteinase 2, TGFbeta1 and CTGF) were quantified by real-time PCR using a LightCycler™. […] Real-time PCR (polymerase chain reaction in real time) makes it possible to determine specific nucleic acids quantitatively. […]

“And” between values parts separate entries of the source, which are not always exact repeats. Equal entries are not always repeated.

Consider TGFβ, for which the “Collagen synthesis (procollagen type I C-peptide, Absorption, in % of the controls)” value in experiment [1] (control heart No. 3, 6 h) is recorded as 84 % of the controls; in experiment [1] (control heart No. 3, 12 h) it was 123 % of the controls; in experiment [1] (control heart No. 5, 6 h), 71 % of the controls; in experiment [1] (control heart No. 6, 6 h) it was 110 % of the controls; in experiment [2] (EFH heart No. 1, 24 h), 166 % of the controls; in experiment [2] (EFH heart No. 4, 24 h), 377 % of the controls. For the same substance, the “Collagen synthesis (procollagen type I C-peptide, Absorption, in % of the controls)” value in experiment [2] (EFH heart No. 10, 5 h) is recorded as 142 % of the controls; in experiment [2] (EFH heart No. 11, 5 h) it was 123 % of the controls. Further, the “Collagen synthesis (procollagen type I C-peptide, Absorption, in % of the controls), MV” value in experiment [1] was 97 % of the controls; in experiment [2], 202 % of the controls; in experiment [2] (listed as TGF β) it was 202+/−52 % of the controls.

Take “angiotensin II (DRVYIHPF; Angiotensin-2; UniProt P01019 25-32, looked up) [AII, reference compound]”: the “Collagen synthesis (procollagen type I C-peptide, Absorption, in % of the controls)” value in experiment [1] (control heart No. 3, 6 h) is on record as 84 % of the controls; in experiment [1] (control heart No. 3, 12 h), 92 % of the controls; in experiment [1] (control heart No. 5, 6 h), 88 % of the controls; in experiment [2] (EFH heart No. 1, 24 h) it was 142 % of the controls; in experiment [2] (EFH heart No. 4, 24 h), 471 % of the controls; in experiment [2] (EFH heart No. 10, 5 h) it was 94 % of the controls. In experiment [2] (EFH heart No. 11, 5 h), the “Collagen synthesis (procollagen type I C-peptide, Absorption, in % of the controls)” value is 113 % of the controls. Moreover, the “Collagen synthesis (procollagen type I C-peptide, Absorption, in % of the controls), MV” value in experiment [1] was 88 % of the controls; in experiment [2] (listed as Ang II), 205+/−67 % of the controls and 205 % of the controls. Moreover, the “MMP 2 mRNA” value in experiment [3] (control 0.43 +/− 0.2) was 0.22 +/− 0.1. The “CTGF mRNA” value in experiment [3] (control 0.45 +/− 0.27) is 0.34 +/− 0.9. In addition, in experiment [3] (control 0.56 +/− 0.1), the “Col 1 mRNA” value is recorded as 0.56 +/− 0.27. Besides, in experiment [3] (control 0.60 +/− 0.09), the “TGFbeta1 mRNA” value is 0.71 +/− 0.07.

TNFa: the “Collagen synthesis (procollagen type I C-peptide, Absorption, in % of the controls)” value in experiment [1] (control heart No. 3, 6 h) is 81 % of the controls; in experiment [1] (control heart No. 3, 12 h), 92 % of the controls; in experiment [1] (control heart No. 5, 6 h), 77 % of the controls; in experiment [1] (control heart No. 6, 6 h), 92 % of the controls; in experiment [2] (EFH heart No. 1, 24 h) it was 166 % of the controls; in experiment [2] (EFH heart No. 4, 24 h), 262 % of the controls. The “Collagen synthesis (procollagen type I C-peptide, Absorption, in % of the controls)” value in experiment [2] (EFH heart No. 10, 5 h) is on record as 67 % of the controls; in experiment [2] (EFH heart No. 11, 5 h) it was 91 % of the controls; in experiment [2] (EFH heart No. 12, 12 h), 107 % of the controls; in experiment [2] (EFH heart No. 13, 12 h), 126 % of the controls; in experiment [2] (EFH heart No. 14, 12 h), 190 % of the controls. The figures for the “Collagen synthesis (procollagen type I C-peptide, Absorption, in % of the controls), MV” value in experiment [1], in experiment [2] and in experiment [2] (listed as TNFalpha) were 86 % of the controls, 139 % of the controls and 139+/−26 % of the controls, respectively.
